From patent US7314940B2, “Jun kinase inhibitors” (Eisai Co., Ltd., priority 2001, dated 2008)

Legend:
Type in all cases: biochemical
JNK1 = JNK1 (Homo sapiens, UniProt P45983); assay: JNK1 SPA assay; conditions: phosphorylation of GST-c-Jun, 2 μM ATP
Method: (§1) JNK1, JNK2, JNK3—SPA Assay
(§2) • 1. Compound is dissolved in DMSO to a convenient concentration and this is diluted in 10% DMSO to a five times concentrate of the desired starting concentration (frequently 1: 100). • 2. 10 μl of 500 mM EDTA is added to alternative wells of the Opti-plate row, which will receive kinase reaction plus DMSO. This creates the negative control. • 3. For the JNK2 and JNK3 assay, compounds are prepared in six 2-fold dilutions with water and each concentration is tested in duplicate. For the JNK1 assay compounds are prepared in four 5-fold dilutions with water which are tested in triplicate. Controls are treated identically. • 4. 20 μl per well of each compound concentration is transferred to an Opti-plate, in duplicate. • 5. 30 μl (JNK2/3 SPA) or 50 μl (JNK1 SPA) of substrate solution (25 mM HEPES pH 7.5, 10 mM magnesium acetate with 3.33 μM ATP (JNK2/3) or 2 μM ATP (JNK1), approximately 7.5 kBq [γ-^33P] ATP, GST-c-Jun, in water) is added to each well. • 6. 50 μl (JNK2/3 SPA) or 30 gl (JNK1 SPA) of kinase solution (JNK in 25 mM HEPES pH 7.5, 10 mM Mg Acetate) is added to each well.
(§3) • 7. The plate is incubated for 30 minutes at room temperature. • 8. 100 μl of bead/stop solution is added to each well (5 mg/ml glutathione-PVT-SPA beads, 40 mM ATP in PBS). • 9. Plates are sealed and incubated for 30 minutes at room temperature, centrifuged for 10 minutes at 2500 g and counted. • 10. The IC50 values are calculated as the concentration of the compound being tested at which the phosphorylation of c-Jun is decreased to 50% of the control value.

JNK3 = JNK3 (Homo sapiens, UniProt P53779); assay: JNK3 SPA assay; conditions: phosphorylation of GST-c-Jun, 3.33 μM ATP
Sequence of JNK3 (P53779 whole entry): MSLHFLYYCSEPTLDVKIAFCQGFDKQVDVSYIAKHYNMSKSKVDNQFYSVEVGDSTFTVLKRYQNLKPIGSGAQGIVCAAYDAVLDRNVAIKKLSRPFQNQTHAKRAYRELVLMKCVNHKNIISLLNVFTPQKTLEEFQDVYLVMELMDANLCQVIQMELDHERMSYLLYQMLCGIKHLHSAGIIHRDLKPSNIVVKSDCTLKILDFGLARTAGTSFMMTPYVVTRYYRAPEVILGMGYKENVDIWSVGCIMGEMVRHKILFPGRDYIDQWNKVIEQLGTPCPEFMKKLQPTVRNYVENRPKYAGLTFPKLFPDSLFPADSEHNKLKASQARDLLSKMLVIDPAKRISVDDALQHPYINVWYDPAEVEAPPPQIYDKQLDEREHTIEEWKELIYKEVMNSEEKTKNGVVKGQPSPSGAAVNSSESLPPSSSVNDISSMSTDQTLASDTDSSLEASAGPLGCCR
Method: as §1, §2, §3

p38 MAP kinase = biological target: T1, p38 MAP kinase (Homo sapiens, UniProt Q16539); assay: p38 ELISA; conditions: phosphorylation of GST-ATF2, 50 μM ATP
T1 construct: purchased Upstate
T1 sequence (Q16539 whole entry): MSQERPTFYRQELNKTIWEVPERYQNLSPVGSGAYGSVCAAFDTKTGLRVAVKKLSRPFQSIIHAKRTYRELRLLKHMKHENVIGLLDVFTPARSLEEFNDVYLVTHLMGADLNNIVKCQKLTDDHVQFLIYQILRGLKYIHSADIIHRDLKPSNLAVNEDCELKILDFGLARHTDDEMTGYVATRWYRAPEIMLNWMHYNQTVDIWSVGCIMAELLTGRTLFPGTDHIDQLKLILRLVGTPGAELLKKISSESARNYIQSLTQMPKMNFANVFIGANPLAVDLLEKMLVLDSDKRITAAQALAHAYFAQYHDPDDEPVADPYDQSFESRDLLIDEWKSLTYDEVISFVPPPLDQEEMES
Method: Active p38 kinase (100 ng; Upstate) was added to 2 μg GST-ATF2 substrate (NEB) in 250 mM Hepes pH 7.5/100 mM MgAc/50 μM ATP (final) in the presence or absence of compounds in 50 μl. The mixture was incubated at 30° C. for 1 hour, and then diluted with 200 μl PBS-Tween (0.05%). From this, duplicate volumes of 100 μl were added to a Reacti-Bind glutathione coated plate (Pierce) and incubated for 1 hour. After washing 3 times with PBS-Tween (0.05%), rabbit anti-phospho-ATF2 (Thr71) antibody (NEB) was added at 1:500, and incubated for another hour at room temperature. After 3 additional washes with PBS-Tween (0.05%), 100 μl of anti-rabbit IgG alkaline phosphatase-conjugated secondary antibody (Sigma) was added at 1:1000, the reaction was incubated for a further hour, washed 3 times, and then phosphatase substrate (Sigma) was added (100 μl per well; 3 tablets in 5 ml water). After incubation in the dark at 37° C. for 1 hour, the reaction mixture was transferred to a clear 96 well plate, and the absorbance at 405 nm was read. The IC50 values are calculated as the concentration of the compound being tested at which the phosphorylation of ATF2 is decreased to 50% of the control value.

JNK2 = JNK2 (Homo sapiens, UniProt P45984); assay: JNK2 SPA assay; conditions: phosphorylation of GST-c-Jun, 3.33 μM ATP
Sequence of JNK2 (P45984 whole entry): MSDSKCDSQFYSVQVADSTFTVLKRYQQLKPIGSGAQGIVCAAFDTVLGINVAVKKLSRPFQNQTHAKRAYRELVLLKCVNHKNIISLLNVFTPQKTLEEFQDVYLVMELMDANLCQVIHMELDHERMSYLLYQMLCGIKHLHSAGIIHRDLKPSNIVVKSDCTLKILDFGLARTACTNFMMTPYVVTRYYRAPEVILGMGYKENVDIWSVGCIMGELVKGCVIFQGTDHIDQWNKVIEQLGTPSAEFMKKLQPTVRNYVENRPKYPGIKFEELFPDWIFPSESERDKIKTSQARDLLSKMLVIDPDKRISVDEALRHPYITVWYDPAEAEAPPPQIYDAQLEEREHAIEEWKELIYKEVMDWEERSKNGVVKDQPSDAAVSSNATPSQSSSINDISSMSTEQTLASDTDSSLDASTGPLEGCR
Method: as §1, §2, §3

Sequence of JNK1 (P45983 whole entry): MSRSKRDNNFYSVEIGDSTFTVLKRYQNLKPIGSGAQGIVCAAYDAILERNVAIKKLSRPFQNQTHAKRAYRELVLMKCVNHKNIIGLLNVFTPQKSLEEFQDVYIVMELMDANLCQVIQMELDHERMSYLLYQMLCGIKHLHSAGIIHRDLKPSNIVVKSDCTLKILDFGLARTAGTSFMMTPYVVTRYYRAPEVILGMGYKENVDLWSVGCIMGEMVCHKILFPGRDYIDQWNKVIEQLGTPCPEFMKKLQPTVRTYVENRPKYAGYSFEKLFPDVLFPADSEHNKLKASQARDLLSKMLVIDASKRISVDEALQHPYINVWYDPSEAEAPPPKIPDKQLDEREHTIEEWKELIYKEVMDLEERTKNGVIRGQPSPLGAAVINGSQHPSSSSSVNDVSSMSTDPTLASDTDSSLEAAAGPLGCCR

| IC50 (JNK1) | IC50 (JNK3) | IC50 (p38 MAP kinase) | IC50 (JNK2) | SMILES |
| --- | --- | --- | --- | --- |
| 0.027 µM | 0.014 µM | 0.059 µM | 0.013 µM | CCNc1nccc(-c2c(-c3ccc(F)cc3)nc3n2[C@H](Cn2cccc2)CC3)n1 |
| 0.022 µM | 0.007 µM |  |  | Fc1ccc(-c2nc3n(c2-c2ccnc(NC4CCC4)n2)[C@H](Cn2ccnc2)CC3)cc1 |
|  | 0.01 µM |  |  | Fc1ccc(-c2nc3n(c2-c2ccnc(NC4CCC4)n2)[C@H](CC2CCCC2)CC3)cc1 |
| 0.092 µM | 0.008 µM |  |  | Fc1ccc(SC[C@@H]2CCc3nc(-c4ccc(F)cc4)c(-c4ccnc(NC5CCC5)n4)n32)cc1 |
| 0.636 µM | 0.091 µM | 0.619 µM | 0.25 µM | CCCNc1nccc(-c2c(-c3ccc(F)cc3)nc3n2[C@H](Cn2ccc4ccccc42)CC3)n1 |
| 0.524 µM | 0.038 µM |  | 0.126 µM | Fc1ccc(-c2nc3n(c2-c2ccnc(NC4CCC4)n2)[C@H](CNc2ccccn2)CC3)cc1 |
|  | 0.301 µM |  |  | COc1ccc(COC[C@H]2CCc3nc(-c4ccc(F)cc4)c(-c4ccnc(NC5CCC5)c4)n32)cc1 |
|  | 0.023 µM |  |  | COc1ccc(COC[C@@H]2CCc3nc(-c4ccc(F)cc4)c(-c4ccnc(NC5CCC5)c4)n32)cc1 |
|  | 0.017 µM |  |  | CCNc1nccc(-c2c(-c3ccc(F)cc3)nc3n2[C@H](CN2C(=O)CCC2=O)CC3)n1 |
| 0.137 µM | 0.086 µM |  | 0.038 µM | CCNc1nccc(-c2c(-c3ccc(F)cc3)nc3n2[C@H](COc2ccc4cccc([N+](=O)[O-])c4n2)CC3)n1 |
| 0.06 µM | 0.006 µM |  |  | O=C1CCC(=O)N1C[C@@H]1CCc2nc(-c3ccc(F)cc3)c(-c3ccnc(NC4CCC4)n3)n21 |
| 0.078 µM | 0.025 µM |  | 0.03 µM | Cc1cc(OC[C@@H]2CCc3nc(-c4ccc(F)cc4)c(-c4ccnc(NC5CCC5)n4)n32)c2ccccc2n1 |
|  | 0.295 µM |  |  | CCCNc1nccc(-c2c(-c3ccc(F)cc3)nc3n2[C@@H](COc2ccc4ccccc4n2)CC3)n1 |
| 0.313 µM | 0.029 µM | 0.185 µM | 0.125 µM | CCNc1nccc(-c2c(-c3ccc(F)cc3)nc3n2[C@H](COc2ncccn2)CC3)n1 |
|  | 0.15 µM |  |  | CCCNc1nccc(-c2c(-c3ccc(F)cc3)nc3n2[C@@H](Cn2ccc4ccccc42)CC3)n1 |
| 0.412 µM | 0.054 µM |  | 0.083 µM | O=C(NC[C@@H]1CCc2nc(-c3ccc(F)cc3)c(-c3ccnc(NC4CCC4)n3)n21)c1ccccc1 |
| 0.125 µM | 0.061 µM | 0.696 µM | 0.125 µM | CCNc1nccc(-c2c(-c3ccc(F)cc3)nc3n2[C@H](Cn2ccc4cccc(F)c42)CC3)n1 |
| 0.094 µM | 0.03 µM | 0.148 µM |  | COc1ccc(CSC[C@@H]2CCc3nc(-c4ccc(F)cc4)c(-c4ccnc(NC5CCC5)n4)n32)cc1 |
| 0.183 µM | 0.088 µM | 0.27 µM | 0.052 µM | CCCNc1nccc(-c2c(-c3ccc(F)cc3)nc3n2[C@H](COc2ccc4ccccc4n2)CC3)n1 |
| 0.249 µM | 0.071 µM |  | 0.114 µM | Fc1ccc(-c2nc3n(c2-c2ccnc(NC4CCC4)n2)[C@H](COc2ccnc4ccccc24)CC3)cc1 |
| 0.248 µM | 0.053 µM |  |  | Fc1ccc(-c2nc3n(c2-c2ccnc(NC4CCC4)n2)[C@H](/C=C/c2cccs2)CC3)cc1 |
